Laboratory results reported in patent US20220211652A1, “USE OF AN RXR AGONIST IN TREATING HER2+ CANCERS” (Io Therapeutics, Inc, priority 2019, published 2022).

Tests used:
[1] = system: PPAR/RXR, FXR/RXR, or LXR/RXR; conditions: cited from earlier work
SkBr3 cells = assay: Growth inhibition of SkBr3 breast cancer cells, DAPI nuclei count; format: cell-based; conditions: Her2+ SkBr3 cell line, FIG. 1B; IRX4204 10-1000 nM, trastuzumab 0.1-10 μg/ml
Source text: (§1) MCF7 is an ER^+ PR^+ Her2^− cell line. SkBr3 is an ER^− PR^− Her2^+ cell line. […] After a further 6 days, the cells were fixed with 4% paraformaldehyde in phosphate buffered saline (PBS).
(§2) Additionally the panel of breast cancer cell lines was expanded to also include the ER^+ PR^+ Her2^+ cell line BT474 and the ER^+ PR^− Her2^+ cell line MDA-MB-361.

MCF7 cells = assay: Growth inhibition of MCF7 breast cancer cells, DAPI nuclei count; format: cell-based; conditions: Her2− MCF7 cell line, FIG. 1A; IRX4204 10-1000 nM, trastuzumab 0.1-10 μg/ml
Source text: as §1, §2

RAR/RXR = assay: Activation of non-permissive heterodimer RAR/RXR; format: cell-based
Nurr1/RXR heterodimer = assay: Activation of permissive heterodimer Nurr1/RXR; format: cell-based
PPAR/RXR = assay: Activation of permissive heterodimer PPAR/RXR; format: cell-based
FXR/RXR = assay: Activation of permissive heterodimer FXR/RXR; format: cell-based
LXR/RXR = assay: Activation of permissive heterodimer LXR/RXR; format: cell-based
RXR homodimers = assay: Activation of RXR homodimers; format: cell-based
RARα = RARα (Homo sapiens, UniProt P10276); conditions: α isoform
RARα, sequence (P10276 whole entry, species assumed, canonical isoform): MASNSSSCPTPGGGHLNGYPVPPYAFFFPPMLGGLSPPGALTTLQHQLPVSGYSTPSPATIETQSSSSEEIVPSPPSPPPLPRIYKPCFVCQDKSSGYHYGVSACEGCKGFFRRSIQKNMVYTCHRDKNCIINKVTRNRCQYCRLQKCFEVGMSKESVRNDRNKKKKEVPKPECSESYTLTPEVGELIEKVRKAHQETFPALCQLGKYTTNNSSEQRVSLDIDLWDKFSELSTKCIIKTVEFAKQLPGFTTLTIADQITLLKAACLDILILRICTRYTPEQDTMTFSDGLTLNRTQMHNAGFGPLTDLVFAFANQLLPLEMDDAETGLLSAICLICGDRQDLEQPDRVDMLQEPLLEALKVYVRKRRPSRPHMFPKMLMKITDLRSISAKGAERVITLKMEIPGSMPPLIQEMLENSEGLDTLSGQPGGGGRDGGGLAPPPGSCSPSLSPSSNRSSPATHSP

RARβ = RARβ (Homo sapiens, UniProt P10826); conditions: β isoform
RARβ, sequence (P10826 whole entry, species assumed, canonical isoform): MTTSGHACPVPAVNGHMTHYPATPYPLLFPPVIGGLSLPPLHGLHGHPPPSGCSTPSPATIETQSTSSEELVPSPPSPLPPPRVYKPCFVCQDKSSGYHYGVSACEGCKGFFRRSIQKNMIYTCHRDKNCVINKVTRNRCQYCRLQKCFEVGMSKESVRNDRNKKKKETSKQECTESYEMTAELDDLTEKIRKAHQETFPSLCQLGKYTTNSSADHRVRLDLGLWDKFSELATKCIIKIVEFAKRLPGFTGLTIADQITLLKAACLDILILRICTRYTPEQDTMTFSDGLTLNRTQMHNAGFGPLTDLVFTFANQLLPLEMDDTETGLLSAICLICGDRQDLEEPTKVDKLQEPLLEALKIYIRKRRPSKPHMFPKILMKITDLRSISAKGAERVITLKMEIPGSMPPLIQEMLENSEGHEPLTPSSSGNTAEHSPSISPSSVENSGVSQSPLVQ

RARγ = RARγ (Homo sapiens, UniProt P13631); conditions: γ isoform
RARγ, sequence (P13631 whole entry, species assumed, canonical isoform): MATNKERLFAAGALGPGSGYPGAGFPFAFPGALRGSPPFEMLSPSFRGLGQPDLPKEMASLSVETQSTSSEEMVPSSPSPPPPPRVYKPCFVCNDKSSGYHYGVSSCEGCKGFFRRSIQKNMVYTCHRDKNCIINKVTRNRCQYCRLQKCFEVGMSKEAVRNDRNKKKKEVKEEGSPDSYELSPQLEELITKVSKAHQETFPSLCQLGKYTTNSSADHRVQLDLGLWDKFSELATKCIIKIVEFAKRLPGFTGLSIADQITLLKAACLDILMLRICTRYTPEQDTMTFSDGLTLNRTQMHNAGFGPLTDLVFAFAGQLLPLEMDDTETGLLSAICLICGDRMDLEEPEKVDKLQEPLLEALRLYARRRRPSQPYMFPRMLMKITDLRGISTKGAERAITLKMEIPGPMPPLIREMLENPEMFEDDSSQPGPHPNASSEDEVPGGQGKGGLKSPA

| Compound | activation of one or more of PPAR/RXR, FXR/RXR, or LXR/RXR (in words) [1] | growth inhibitory effect (in words) (SkBr3 cells) | growth inhibitory effect (in words) (MCF7 cells) | activation of non-permissive heterodimers such as RAR/RXR (in words) (RAR/RXR) | activation of the Nurr1/RXR heterodimer (in words) (Nurr1/RXR heterodimer) | activation of PPAR/RXR (in words) (PPAR/RXR) | activation of FXR/RXR (in words) (FXR/RXR) | activation of LXR/RXR (in words) (LXR/RXR) | activation of RXR homodimers (in words) (RXR homodimers) | RAR EC10 (concentration effective to cause a 10% of maximal activation of the RAR) (RARα) | RAR EC10 (concentration effective to cause a 10% of maximal activation of the RAR) (RARβ) | RAR EC10 (concentration effective to cause a 10% of maximal activation of the RAR) (RARγ) |
| --- | --- | --- | --- | --- | --- | --- | --- | --- | --- | --- | --- | --- |
| Cc1cc2c(cc1C1(c3ccc(C(=O)O)cn3)CC1)C(C)(C)CCC2(C)C [LGD268] | activates one or more | – | – | – | – | – | – | – | – | – | – | – |
| CC(/C=C/[C@@H]1C[C@]1(C)c1ccc2c(c1)C(C)(C)CCC2(C)C)=C\C(=O)O [IRX4204, 3,7-dimethyl-6(S),7(S)-methano,7-[1,1,4,4-tetramethyl-1,2,3,4-tetrahydron-aphth-7-yl]2(E), 4(E) heptadienoic acid] | – | moderate growth inhibitory effect | neither agent had more than marginal effect | does not activate | specifically activates | does not activate | does not activate | does not activate | specifically activate | 300 nM | 200 nM | 200 nM |
